# According to publication PMC5538626, “Structural and functional analysis of the GABARAP interaction motif (GIM)” (EMBO Reports, 2017):
# Ends that are not written are not given here.
# What was measured:
# GABARAP R28K = biological target: T1, GABARAP R28K (Homo sapiens, UniProt O95166, R28K); assay: ITC titration of PLEKHM1-LIR peptide into GABARAP R28K mutant; type: binding
# T1 construct: modified Ub-leader (ubiquitin fusion leader) (N); made in house; host or cells: E. coli NEB T7 Express
# Method: (§1) The chimeric constructs were expressed as a His‐tag fusion protein in E. coli BL21(DE3) cells. The cells were induced with 0.3 mM IPTG at OD600 0.6 for 16 h at 26°C. The cell pellets were lysed using mechanical sonication in lysis buffer (20 mM Tris–HCl pH 9.0, 100 mM NaCl, 10 mM imidazole, supplemented with 0.1% Triton X‐100). The proteins were purified using Ni‐NTA beads (GE Healthcare) and the His‐tag was cleaved using thrombin (Invitrogen) at room temperature for 16 h. The last step was gel filtration chromatography using a Superdex S200/300 GL column (GE Healthcare). The proteins were concentrated using spin concentrators (Vivaspin). For ITC and NMR studies, the non‐labelled and stable isotopes labelled LC3 and GABARAP proteins were obtained based on the protocols described elsewhere 30, 39. Here, E. coli NEB T7 Express culture transformed with corresponding plasmids were grown till OD600 nm = 1.0 and protein expression was induced with 0.2 mM IPTG. The cultures were incubated at 25°C for 8–12 h before cell harvesting. Isolation and purification procedures were similar to those reported in Ref. 22, 40. Before experiments, all proteins and peptides were equilibrated with a buffer containing 50 mM Na2HPO4, 100 mM NaCl at pH 7.0, and supplied with 5 mM protease inhibitor cocktail.
# (§2) The protocol for preparation of non‐labelled and ^13C,^15N‐labelled PLEKHM1‐LIR peptide was slightly modified to achieve highest yield of the peptide. The 50 ml M9 culture was inoculated with NEB T7 cell transformed with pET39_Ub63‐PLEKHM1‐LIR plasmid and grown overnight at 37°. The collected cells were resuspended in 2 l of either LB or M9 media contained 1.5 g ^15N‐labelled NH4Cl and 3.0 g of ^13C‐labelled glucose. The cultures were grown at 37° till A(600 nm) = 0.9 and supplied with 1 mM of IPTG to induce Ub63‐PLEKHM1‐LIR overexpression (3 h at 37°). After that cells were harvested by centrifugation, re‐suspended in buffer contained 50 mM Tris–HCl pH = 7.9, 200 mM NaCl, 5% glycerol, 0.1 mg/ml DNase A and 4 mM protease inhibitor cocktail. After cell lysis by French press, debris was removed by centrifugation and clear supernatant was applied onto the column contained Ni‐NTA Sepharose equilibrated with the loading buffer (50 mM Tris–HCl pH = 7.9, 250 mM NaCl, 1% glycerol and 20 mM imidazole). Elution was performed with 400 mM imidazole in the same buffer. An aliquot of pure Ub63‐PLEKHM1‐LIR fractions was further purified by gel filtration on Superdex75 26 × 60 column for control ITC and analytical size exclusion chromatography experiments, remaining fusion protein was processed with the TEV‐protease and PLEKHM1‐LIR peptide was purified to 95% purity by reverse Ni‐NTA chromatography and followed gel filtration on Superdex75 26 × 60 column. Peak maximum of peptide was detected at […] (void volume 115 ml). Pure peptide was concentrated in Amicon concentrators with cut‐off of 3 kDa (> 95% retention).
# (§3) All titration experiments were performed at 25°C using a VP‐ITC microcalorimeter (Malvern Instruments Ltd, UK). The ITC data were analysed with the ITC‐Origin 7.0 software with a “one‐site” binding model. The peptides at concentrations of 0.4 mM were titrated into 0.020 mM LC3 and GABARAP proteins in 26 steps. The protein and peptide concentrations were calculated from the UV absorption at 280 nm by NanoDrop spectrophotometer (Thermo Fisher Scientific, DE, USA).
# [1] = system: endogenous PLEKHM1:GABARAP complex; assay: Peptide competition in immunoprecipitation of endogenous PLEKHM1; conditions: Plekhm1 +/+ MEF lysate, 50 μM peptide, cells treated 4 h KU-0063794 (10 μM) + chloroquine (20 μM); Fig 2D
# LC3B K30R = biological target: T2, LC3B K30R (Homo sapiens, UniProt Q9GZQ8, K30R); assay: ITC titration of PLEKHM1-LIR peptide into LC3B K30R mutant; type: binding
# T2 construct: modified Ub-leader (ubiquitin fusion leader) (N); made in house; host or cells: E. coli NEB T7 Express
# Method: as §1, §2, §3
# T1 sequence (O95166 whole entry R28K, the tested form may be a part): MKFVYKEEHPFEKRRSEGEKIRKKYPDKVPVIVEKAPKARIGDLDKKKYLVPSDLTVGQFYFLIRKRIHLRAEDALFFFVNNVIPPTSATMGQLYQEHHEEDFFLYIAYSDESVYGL
sequence,measurement,setting,value
GAMGPQQEDEWVNVQYPD [PLEKHM1‐LIR WT],-T*DS,"GABARAP R28K; 25°C, pH 7.0, GABARAP R28K",+2.00 kcal mol-1
same,DG (ΔG),"GABARAP R28K; 25°C, pH 7.0, GABARAP R28K",-8.55 kcal/mol
same,DH (ΔH),"GABARAP R28K; 25°C, pH 7.0, GABARAP R28K",-10.55 ± 0.1 kcal/mol
same,DS (ΔS),"GABARAP R28K; 25°C, pH 7.0, GABARAP R28K",-6.71 cal mol-1 K-1
same,KA,"GABARAP R28K; 25°C, pH 7.0, GABARAP R28K",1.9±0.1 *10^6 M-1
same,N,"GABARAP R28K; 25°C, pH 7.0, GABARAP R28K",1.05±0.01
same,smaller favorable enthalpy vs wild type GABARAP,GABARAP R28K; within experimental error,0.05 kcal/mol
same,effect on endogenous PLEKHM1:GABARAP interaction,[1],blocked the interaction
same,-T*DS,"LC3B K30R; 25°C, pH 7.0, LC3B K30R",-1.08 kcal/mol
same,DG (ΔG),"LC3B K30R; 25°C, pH 7.0, LC3B K30R",-7.20 kcal/mol
same,DH (ΔH),"LC3B K30R; 25°C, pH 7.0, LC3B K30R",-6.1 ± 0.2 kcal/mol
same,DS (ΔS),"LC3B K30R; 25°C, pH 7.0, LC3B K30R",+3.61 cal mol-1 K-1
same,KA,"LC3B K30R; 25°C, pH 7.0, LC3B K30R",0.19±0.01 *10^6 M-1
same,N,"LC3B K30R; 25°C, pH 7.0, LC3B K30R",1.11±0.02
same,increase in favorable binding enthalpy vs wild type LC3B,LC3B K30R; within experimental error,0.3 kcal/mol
